Laboratory results published in PubChem BioAssay (NCI).
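Step 1: Grow cells in 96-well plates. Step 2: Expose to compound for 48 hours at 5 concentrations. Step 3: Interpolate endpoints linearly; if unreached, use highest concentration. The concentration for full growth arrest is given as TGI.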

Tests used:
Assay in all cases: NCI anticancer screen, dose series, 48 h
[1] = tested on: DLD-1 colon
[2] = tested on: RXF 393 renal
[3] = tested on: IGROV1 ovarian
[4] = tested on: UACC-62 melanoma
[5] = tested on: COLO 205 colon
[6] = tested on: NCI-H23 lung
[7] = tested on: KM20L2 colon
[8] = tested on: SF-268 CNS
[9] = tested on: CCRF-CEM leukemia
[10] = tested on: LOX IMVI melanoma
[11] = tested on: OVCAR-4 ovarian
[12] = tested on: SK-MEL-28 melanoma
[13] = tested on: SN12C renal
[14] = tested on: DMS 114 small cell lung
[15] = tested on: NCI-H460 lung
[16] = tested on: OVCAR-3 ovarian
[17] = tested on: KM12 colon
[18] = tested on: TK-10 renal
[19] = tested on: MALME-3M melanoma
[20] = tested on: SK-OV-3 ovarian
[21] = tested on: CAKI-1 renal
[22] = tested on: DMS 273 small cell lung
[23] = tested on: HOP-18 NSCLC
[24] = tested on: SF-295 CNS
[25] = tested on: RXF-631 renal
[26] = tested on: OVCAR-8 ovarian
[27] = tested on: SF-539 CNS
[28] = tested on: K-562 leukemia
[29] = tested on: UACC-257 melanoma
[30] = tested on: A549 NSCLC
[31] = tested on: NCI-H522 lung
[32] = tested on: LXFL 529 NSCLC
[33] = tested on: SNB-75 CNS
[34] = tested on: HT29 colon
[35] = tested on: SW-620 colon
[36] = tested on: HOP-62 NSCLC
[37] = tested on: U251 CNS
[38] = tested on: HL-60(TB) leukemia
[39] = tested on: M19-MEL melanoma
[40] = tested on: HOP-92 NSCLC
[41] = tested on: SK-MEL-2 melanoma
[42] = tested on: 786-0 renal
[43] = tested on: SK-MEL-5 melanoma
[44] = tested on: HCC-2998 colon
[45] = tested on: M14 melanoma
[46] = tested on: UO-31 renal
[47] = tested on: ACHN renal
[48] = tested on: EKVX NSCLC
[49] = tested on: OVCAR-5 ovarian
[50] = tested on: A498 renal
[51] = tested on: SNB-19 CNS
[52] = tested on: SNB-78 CNS
[53] = tested on: MOLT-4 leukemia
[54] = tested on: HCT-116 colon
[55] = tested on: RPMI-8226 leukemia
[56] = tested on: NCI-H226 lung
[57] = tested on: HCT-15 colon
[58] = tested on: SR leukemia
[59] = tested on: XF 498 CNS

O=C1/C(=C\c2ccccc2)C2/C(=C\c3ccccc3)C(=O)/C(=C\c3ccccc3)C2/C1=C\c1ccccc1 (stereo unspecified)
TGI [1]: 2.85 µM
TGI [2]: 3.15 µM
TGI [3]: 4.8 µM
TGI [4]: 4.24 µM
TGI [5]: 2.94 µM
TGI [6]: 3.78 µM
TGI [7]: 3.55 µM
TGI [8]: 18.5 µM
TGI [9]: 4.35 µM
TGI [10]: 1.75 µM
TGI [11]: 3.83 µM
TGI [12]: 8.75 µM
TGI [13]: 4.89 µM
TGI [14]: 5.67 µM
TGI [15]: 4.2 µM
TGI [16]: 4.92 µM
TGI [17]: 3.54 µM
TGI [18]: 19.5 µM
TGI [19]: 4.36 µM
TGI [20]: 46.9 µM
TGI [21]: 8.17 µM
TGI [22]: 3.17 µM
TGI [23]: > 100 µM
TGI [24]: 5.71 µM
TGI [25]: 9.68 µM
TGI [26]: 21.2 µM
TGI [27]: 6.81 µM
TGI [28]: > 100 µM
TGI [29]: 4.2 µM
TGI [30]: 7 µM
TGI [31]: 2.09 µM
TGI [32]: 24.9 µM
TGI [33]: 71.2 µM
TGI [34]: 3.7 µM
TGI [35]: 7.26 µM
TGI [36]: 5.03 µM
TGI [37]: 2.43 µM
TGI [38]: 4.5 µM
TGI [39]: 3.47 µM
TGI [40]: 4.4 µM
TGI [41]: 3.62 µM
TGI [42]: 2.78 µM
TGI [43]: 4.7 µM
TGI [44]: 2.59 µM
TGI [45]: 3.44 µM
TGI [46]: 3.32 µM
TGI [47]: 5.94 µM
TGI [48]: 52.7 µM
TGI [49]: 2.82 µM

O=C(COc1ccc(/C=C/C(=O)c2ccc(Cl)cc2)cc1)Nc1c(Cl)cccc1Cl
TGI [1]: > 100 µM
TGI [2]: > 100 µM
TGI [3]: > 100 µM
TGI [4]: > 100 µM
TGI [50]: > 100 µM
TGI [5]: > 100 µM
TGI [6]: > 100 µM
TGI [7]: > 100 µM
TGI [8]: > 100 µM
TGI [9]: > 100 µM
TGI [10]: > 100 µM
TGI [11]: > 100 µM
TGI [12]: > 100 µM
TGI [13]: > 100 µM
TGI [14]: > 100 µM
TGI [15]: > 100 µM
TGI [16]: > 100 µM
TGI [17]: > 100 µM
TGI [18]: > 100 µM
TGI [19]: > 100 µM
TGI [51]: > 100 µM
TGI [52]: > 100 µM
TGI [20]: > 100 µM
TGI [21]: > 100 µM
TGI [23]: > 100 µM
TGI [24]: > 100 µM
TGI [25]: > 100 µM
TGI [26]: > 100 µM
TGI [27]: > 100 µM
TGI [53]: > 100 µM
TGI [29]: > 100 µM
TGI [30]: > 100 µM
TGI [54]: > 100 µM
TGI [31]: > 100 µM
TGI [32]: > 100 µM
TGI [33]: > 100 µM
TGI [55]: > 100 µM
TGI [34]: > 100 µM
TGI [35]: > 100 µM
TGI [36]: > 100 µM
TGI [37]: > 100 µM
TGI [38]: > 100 µM
TGI [39]: > 100 µM
TGI [40]: > 100 µM
TGI [42]: > 100 µM
TGI [43]: > 100 µM
TGI [56]: > 100 µM
TGI [57]: > 100 µM
TGI [58]: > 100 µM
TGI [45]: > 100 µM
TGI [46]: > 100 µM
TGI [47]: > 100 µM
TGI [48]: > 100 µM
TGI [49]: > 100 µM

CCCc1onc(CCC(=O)N(Cc2ccccc2)Cc2ccccc2)c1CC
TGI [1]: > 100 µM
TGI [3]: > 100 µM
TGI [4]: > 100 µM
TGI [50]: > 100 µM
TGI [5]: > 100 µM
TGI [6]: > 100 µM
TGI [7]: > 100 µM
TGI [8]: > 100 µM
TGI [9]: > 100 µM
TGI [10]: > 100 µM
TGI [11]: > 100 µM
TGI [13]: > 100 µM
TGI [14]: > 100 µM
TGI [15]: > 100 µM
TGI [16]: > 100 µM
TGI [17]: > 100 µM
TGI [19]: > 100 µM
TGI [52]: > 100 µM
TGI [20]: > 100 µM
TGI [21]: > 100 µM
TGI [22]: > 100 µM
TGI [24]: > 100 µM
TGI [25]: > 100 µM
TGI [28]: > 100 µM
TGI [53]: > 100 µM
TGI [29]: > 100 µM
TGI [31]: > 100 µM
TGI [32]: > 100 µM
TGI [55]: > 100 µM
TGI [34]: > 100 µM
TGI [36]: > 100 µM
TGI [37]: > 100 µM
TGI [38]: > 100 µM
TGI [39]: > 100 µM
TGI [40]: > 100 µM
TGI [41]: > 100 µM
TGI [42]: > 100 µM
TGI [44]: > 100 µM
TGI [57]: > 100 µM
TGI [59]: > 100 µM
TGI [45]: > 100 µM
TGI [47]: > 100 µM
TGI [49]: > 100 µM
